Some test systems named below: M19-MEL melanoma; SNB-78 CNS; XF 498 CNS; HOP-18 NSCLC; DMS 273 small cell lung; KM20L2 colon; DMS 114 small cell lung; LXFL 529 NSCLC; RXF-631 renal.
Common to all, as to assay: NCI tumour cell line growth inhibition, 48 h

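Values below derive from 48-hour exposures of cells grown in 96-well plates, with endpoints linearly interpolated between the two concentrations bracketing the appropriate inhibition level. TGI is the concentration that stops growth completely.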 Where only a bound is given, the exact number is not on record here.

For the molecule `COc1ccccc1C1C(Cl)C(=O)N1n1cnc2ccccc2c1=O` (stereo unspecified), the TGI in the experiment on M19-MEL melanoma, in the experiment with SNB-78 CNS, in the experiment on XF 498 CNS, with HOP-18 NSCLC, in the experiment with DMS 273 small cell lung and in the experiment on KM20L2 colon was more than 100 µM each time. Besides, the TGI in the experiment on DMS 114 small cell lung and in the experiment on LXFL 529 NSCLC was more than 100 µM each time.
Take `NC1=NC2=c3ccccc3=C(c3cnccn3)C2(c2cnccn2)c2ccccc21` (stereo unspecified): the TGI with M19-MEL melanoma, in the experiment with SNB-78 CNS, in the experiment with XF 498 CNS, with HOP-18 NSCLC, in the experiment with DMS 273 small cell lung and in the experiment on KM20L2 colon was more than 100 µM in each case. This molecule had a TGI with DMS 114 small cell lung of more than 100 µM.
With `COC(=O)[C@H](Cc1ccccc1)NC(=O)/C(=C/C(C)C)NC(=O)[C@H](CCSC)NC=O`, the TGI in the experiment with M19-MEL melanoma, with XF 498 CNS, in the experiment with HOP-18 NSCLC, in the experiment with DMS 273 small cell lung, in the experiment on KM20L2 colon and with DMS 114 small cell lung was more than 100 µM in each case. In the experiment with LXFL 529 NSCLC, this molecule came in with a TGI of more than 100 µM.
As for `CCCCCCCCOCC(O)COC(C)C` (stereo unspecified), the TGI in the experiment on M19-MEL melanoma was more than 100 µM; with HOP-18 NSCLC, more than 100 µM; with DMS 273 small cell lung it was 34.7 µM; with KM20L2 colon, more than 100 µM; in the experiment on LXFL 529 NSCLC, more than 100 µM.
Consider `O=C(C=C1SCCS1)/C=C\c1ccc(Cl)cc1`, for which the TGI with M19-MEL melanoma, in the experiment with SNB-78 CNS, in the experiment on RXF-631 renal, in the experiment on XF 498 CNS, in the experiment with DMS 273 small cell lung and with LXFL 529 NSCLC was more than 100 µM throughout.
`CC(=O)OC1CC2CCN3C(=O)c4cc5c(cc4[C@H](C1OC(C)=O)C23)OCO5` (stereo partly specified): the TGI with M19-MEL melanoma, in the experiment on SNB-78 CNS, in the experiment with DMS 273 small cell lung, in the experiment on KM20L2 colon and in the experiment on LXFL 529 NSCLC was more than 100 µM throughout.
`CC1=NN(C(=O)c2ccccc2O)C(=O)/C1=C/c1cccc(O)c1`: the TGI in the experiment with M19-MEL melanoma, in the experiment with SNB-78 CNS, in the experiment with XF 498 CNS, in the experiment on KM20L2 colon and in the experiment with LXFL 529 NSCLC was more than 100 µM throughout.
Take `CC(C)(C)OC(=O)N[C@H]1CC(O)c2ccccc2N(CC(=O)O)C1=O` (stereo partly specified): the TGI in the experiment on M19-MEL melanoma, in the experiment with RXF-631 renal, with XF 498 CNS, in the experiment with HOP-18 NSCLC, in the experiment with DMS 273 small cell lung and with KM20L2 colon was more than 100 µM each time. Further, the TGI in the experiment with DMS 114 small cell lung and in the experiment on LXFL 529 NSCLC was more than 100 µM each time.

The values are drawn from PubChem BioAssay (NCI).
